Entries after “also recorded” stand apart in the source; their conditions may differ.

The test system of test [1] is LEC. As to the kind of experiment: LEC proliferation assay (5-methylumbelliferylheptanoate fluorescence). Type of test: cell-based, human. How it is done:
(§1) Human dermal BVEC and LEC were isolated from neonatal human foreskins by immunomagnetic purification as previously described(18, 19). The lineage-specific differentiation was confirmed by real-time RT-PCR for the lymphatic vascular markers Prox1, LYVE-1 and podoplanin, and for the blood vascukar endothelial markers VEGF receptor-1 and VEGF-C, as well as by immunostains for CD31, Prox1 and podoplanin as described(18, 19). Cells were cultured in endothelial basal medium (Cambrex, Verviers, Belgium) supplemented with 20% fetal bovine serum (Gibco, Paisley, UK), antibiotics, 2 mM L-glutamine, 10 μg/ml hydrocortisone and 2.5×10^−2 mg/ml N-6,2-O-dibutyryl-adenosine 3′,5′-cyclic monophosphate (all from Fluka, Buchs, Switzerland) for up to eleven passages.
LEC (1.5×10^3) were seeded into fibronectin-coated 96-well plates as described(19). For proliferation studies, quinduplicate wells were treated or not with different concentrations (0.1 to 10 μM) of the NO donor SNAP (S-Nitroso-N-acetyl-D,L-penicillamine) (Cayman Chemical, Ann Arbor, Mich.) in EBM containing 2% fetal bovine serum. In additional assays, LEC were incubated with 10 μM of SNAP, in the presence or absence of the specific guanylate cyclase inhibitor NS-2028 (100 nM, Cayman Chemical, Ann Arbor, Mich.). After 72 hours, cells were incubated with 5-methylumbelliferylheptanoate as described. The fluorescence intensity, proportional to the number of viable cells, was measured using a Spectra Max GEMINI EM (Bucher Biotech AG, Basel, Switzerland). Haptotatic cell migration was studied as described(19), using 24-well FluoroBlok inserts of 8 μm pore size (Falcon, Franklin Lakes, N.J.). […] After 3 hours incubation at 37° C., cells on the underside of the inserts were stained with Calcein-AM (Molecular Probes), and the fluorescence intensity, proportional to the number of viable cells, was measured using a Spectra Max GEMINI EM as described(19). […] Representative images were captured and the total length of tube-like structures per area was measured using the IP-LAB software as described(19). […]

The subject of test [2] is LEC. As to the kind of experiment: Haptotactic LEC migration assay (FluoroBlok inserts). Type of test: cell-based, human. The following applies: 10 μM SNAP, 100 nM NS-2028, 3 hours. As for the experimental part:
as §1
(§2) LEC (1.5×10^3) were seeded into fibronectin-coated 96-well plates as described(19). […] The fluorescence intensity, proportional to the number of viable cells, was measured using a Spectra Max GEMINI EM (Bucher Biotech AG, Basel, Switzerland). […] After 3 hours incubation at 37° C., cells on the underside of the inserts were stained with Calcein-AM (Molecular Probes), and the fluorescence intensity, proportional to the number of viable cells, was measured using a Spectra Max GEMINI EM as described(19). […] Representative images were captured and the total length of tube-like structures per area was measured using the IP-LAB software as described(19). […]

The subject of test [3] is HR-1 hairless mice. The experiment in a line: UVB irradiation-induced ear swelling. The class given is in vivo. As to conditions: for ear swelling after UVB irradiation vs control-treated: 200 mJ/cm^2 UVB, topical daily 1 mM SNAP or 10 μM NS-2028, days 2-4. How it is done:
(§3) A total of 15 female albino HR-1 hairless mice (Hoshino Laboratory Animal Co., Ltd, Japan) at 8 weeks of age were exposed to a single dose of 200 mJ/cm^2 of UVB irradiation, using ten Toshiba FL-20 SE fluorescent lamps that deliver energy in the UVB (280-340 nm) wave length range with a maximum energy at a wavelength of 305 nm as described(31). Beginning one day before UVB irradiation, the right ears were daily treated topically with 1 mM of SNAP, 10 μM of NS-2028, or 1 mM of SNAP together with 100 μl of 10 μM of NS-2028 in a 50% ethanol solution (n=5 per group) until day 3 after UVB irradiation (5 times total). The left ears were treated with vehicle only. The thickness of the ears was measured every day until day 4 after the UVB irradiation. At 4 days after the UVB irradiation, mouse ears were fixed in cold acetone (AMeX procedure) (30)and were processed for histological analysis of paraffin sections. All animal studies were approved by the Shiseido Life Science Research Center Committee on Research Animal Care.

The test system of test [4] is HR-1 hairless mice. As to the kind of experiment: Histology (hematoxylin-eosin) and MOMA-2 immunohistochemistry of UVB-irradiated ears. Type of test: in vivo. As to conditions: for MOMA-2 positive cells / macrophage infiltration in the dermis / edema formation in the dermis vs control-treated: day 4 after UVB irradiation. As for the experimental part: (§4) Immunofluorescence analysis was performed on 6-μm cryostat sections of human neonatal foreskins as described, using polyclonal antibodies against LYVE-1 (kindly provided by Dr. David Jackson, Oxford, UK), sGCα1, sGCβ1, eNOS (as described above), or a mouse monoclonal antibody against human podoplanin (20) (clone D2-40, Signet Laboratories, Dedham, Mass.), and corresponding secondary antibodies labeled with AlexaFluor488 or AlexaFluor594 (Molecular Probes, Eugene, Oreg.). Immunohistochemical analysis was performed on 5 μm AMEX-fixed sections as described(30), using antibodies against the macrophage monocyte marker MOMA-2 (BMA Biomedicals AG, Switzerland) or LYVE-1. Routine hematoxylin-eosin staining was also performed. Sections were examined by a Nikon E-600 microscope (Nikon, Melville, N.Y.) and images were captured with a SPOT digital camera (Diagnostic Instruments, Sterling Heights, Mich.). Computer-assisted morphometric analyses of representative LYVE-1-stained sections were performed as described(3).
as §3

Another test deals with lymphatic vessels. The experiment in a line: LYVE-1 immunohistochemistry and morphometric analysis of cutaneous lymphatic vessels after UVB. Type of test: in vivo. The following applies: UVB-irradiated mice; for enlargement of lymphatic vessels in the dermis (LYVE-1): vs vehicle. How it is done: as §4, §3
Test [5] deals with LEC. The experiment in a line: LEC tube formation assay (type I collagen overlay). Type of test: cell-based, human. As for the experimental part:
as §1, §2

The next test relates to cGMP production in LEC. As to the kind of experiment: cGMP enzyme immunoassay in siRNA-transfected LEC. Type of test: cell-based, human. How it is done:
siRNA transfection was performed using the Basic Nucleofactor Kit for primary mammalian endothelial cells (Amaxa Biosystems, CITY, Germany). Briefly, after trypsinization, LEC (5×10^5) were resuspended in 100 μl of basic nucleofactor solution. Cells were transfected by electroporation (Nucleofactor II, Amaxa Biosystems), using 1.6 μg of siRNA containing two different double-stranded oligonucleotides for each sGCα2 or sGCα1. The following siRNAs were used: GCα1: CCUUGUACAUAUAUCAGAUtt and GGCACCCUUAAAGAUUUUUtt, GCα2: CGAUACAGCAGACUCUCAAtt and GCUAUGCUCUGAUGUUUCAtt. Control siRNA (Silencer negative control #1 siRNA, Ambion, Cambridgeshire, UK) comprising a 19-bp scrambled sequence with 3′dT overhangs was used as a control; the sequences has no significant sequence homology to any known gene sequence. At 72 hours after tranfection, cells were used for RNA purification or for cGMP assays. Efficient knockdown of mRNA expression was confirmed by TaqMan real-time RT-PCR for sGCα1 and sGCα2 (Applied Biosystems assay ID for sGCα2 was Hs00181365_ml). For cGMP enzyme immunoassays, 1×10^4 siRNA-transfected LEC were seeded into individual wells of a 96-well plate and were incubated with 2% FBS-containing medium. After 24 hours, cells were incubated with several concentrations of SNAP (1-100 μM) for 15 minutes. The cellular cGMP concentrations were measured using an EIA immunoassay kit (Amersham Biosciences, Freiburg, Germany).

[6] abbreviates: day 4 after UVB, SNAP in the presence of NS-2028.

In the case of “4H-8-Bromo-1,2,4-oxadiazolo(3,4-d)benz(b)(1,4)oxazin-1-one [NS-2028]”, the “effect on SNAP-induced LEC proliferation” value with LEC [1] (10 μM SNAP, NS-2028 100 nM, 72 hours) is “significantly blocked”. The “effect on untreated LEC (proliferation)” value in the test on LEC [1] (NS-2028 alone) is recorded as “did not have any effect”. In the test with LEC [2], the “effect on SNAP-induced LEC migration” value is “blocked; also recorded: strongly inhibited”. In the test on HR-1 hairless mice [3], the “ear swelling after UVB irradiation vs control-treated” value is given as “significantly reduced”. The “SNAP-induced augmentation of the UVB response (ear swelling)” value in the test on HR-1 hairless mice [3] (combined topical treatment 1 mM SNAP and 10 μM NS-2028) is on record as “completely prevented”. In addition, in the test with HR-1 hairless mice [4], the “MOMA-2 positive cells / macrophage infiltration in the dermis” value was “less MOMA-2 positive cells” and the “edema formation in the dermis vs control-treated” value is on record as “decreased”. Moreover, in the test with HR-1 hairless mice [4] (setting [6]), the SNAP-induced edema formation entry was “blocked” and the SNAP-induced macrophage infiltration entry was “blocked”. In the test on lymphatic vessels (SNAP with NS-2028), the “SNAP-induced enlargement of lymphatic vessels” value is “inhibited”. Further, the “average size of lymphatic vessels” value in the test with lymphatic vessels (day 4, mean±SEM n=5) is recorded as 350.1 μm^2. The “enlargement of lymphatic vessels in the dermis (LYVE-1)” value in the test with lymphatic vessels is on record as “completely blocked”.
With `CC(=O)NC(C(=O)O)C(C)(C)SN=O` (racemic) [SNAP, S-Nitroso-N-acetyl-D,L-penicillamine], the “minimal effective concentration for induction of LEC proliferation” value in the test with LEC [1] (SNAP 0.1 to 10 μM, 72 hours, EBM 2% fetal bovine serum) was 1 µM. Besides, in the test with LEC [5] (1 μM or 10 μM SNAP), the “formation of tube-like structures vs untreated cultures” value is given as “potently promoted”. Besides, the “minimal effective dose for in vitro cord formation by LEC” value with LEC [5] (type I collagen gel overlay, 6 hours) worked out at 1 µM. Further, the “cGMP production in control siRNA- and sGCα2-siRNA transfected LEC” value with cGMP production in LEC (SNAP 1-100 μM, 15 minutes) was “dose-dependently induced”. Besides, the “minimal effective dose for increased cGMP production” value in the test on cGMP production in LEC (control siRNA-transfected and sGCα2 siRNA-transfected LEC, SNAP 15 minutes) was 1 µM. Also, the “induction of cGMP production in sGCα1-siRNA transfected LEC” value in the test with cGMP production in LEC (sGCα1 knockdown, SNAP 1-100 μM) was “no induction of cGMP was detected; also recorded: completely prevented”. Moreover, the “ear swelling after UVB irradiation vs control-treated” value in the test with HR-1 hairless mice [3] is reported as “significantly enhanced”. In the test on HR-1 hairless mice [4], the “MOMA-2 positive cells / macrophage infiltration in the dermis” value was “strongly enhanced” and the “edema formation in the dermis vs control-treated” value was “enhanced”. In the test on lymphatic vessels (day 4, mean±SEM n=5), the “area occupied by lymphatic vessels” value was determined as 2.18% and the “average size of lymphatic vessels” value was found to be 730.7 μm^2. Moreover, the “enlargement of lymphatic vessels in the dermis (LYVE-1)” value with lymphatic vessels is “pronounced enlargement”.
